Converted amounts (≈) assume the structure as drawn.
Tests used:
Experiment in all cases: MIC, NCCLS broth microdilution
Type in all cases: cell-based
E. faecalis A7789 Line-R = conditions: Enterococcus faecalis, A7789LINER
How it was run: (§1)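 NCCLS broth microdilution MICs determined in both cation-adjusted Mueller-Hinton broth and trypticase soy broth. Media containing ramoplanin supplemented with 0.02% BSA to prevent binding to plastic.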

E. faecalis ATCC29212 = conditions: Enterococcus faecalis, ATCC29212, E. faecalis ATCC29212
How it was run: as §1

E. faecalis ATCC51299 = conditions: Enterococcus faecalis, ATCC51299, E. faecalis ATCC51299
How it was run: as §1

E. faecium A-5960 Line-R = conditions: Enterococcus faecium, A5960LINER
How it was run: as §1

E. faecium A2735 Syn-R = conditions: Enterococcus faecium, A2735SYNR
How it was run: as §1

E. faecium A4192 Syn-R = conditions: Enterococcus faecium, A4192SYNR
How it was run: as §1

E. faecium A5959 Line-R = conditions: Enterococcus faecium, A5959LINER
How it was run: as §1

E. faecium A6343 Line-R = conditions: Enterococcus faecium, A6343LINER
How it was run: as §1

E. faecium A6345 Line-R = conditions: for MIC: Enterococcus faecium, A6345LINER, E. faecium A6345 Line-R
How it was run: as §1

E. faecium A6349 Line-R = conditions: Enterococcus faecium, A6349LINER
How it was run: as §1

E. faecium A6350 Line-R = conditions: Enterococcus faecium, A6350LINER
How it was run: as §1

E. faecium ATCC700221 = conditions: Enterococcus faecium, ATCC700221, E. faecium ATCC700221
How it was run: as §1

E. faecium UA210 = conditions: Enterococcus faecium, UA210, E. faecium UA210
How it was run: as §1

E. faecium UA392 = conditions: Enterococcus faecium, UA392, E. faecium UA392
How it was run: as §1

E. gallinarum UA604 = conditions: Enterococcus gallinarum, GALLINARUM
How it was run: as §1

S. aureus ATCC12600 MRSA = conditions: Staphylococcus aureus
How it was run: as §1

S. aureus ATCC27659 MSSA = conditions: Staphylococcus aureus
How it was run: as §1

S. aureus ATCC27660 MSSA = conditions: Staphylococcus aureus
How it was run: as §1

S. aureus ATCC35556 MRSA = conditions: Staphylococcus aureus
How it was run: as §1

S. aureus ATCC43300 MRSA = test system: S. aureus ATCC43300 MRSA
How it was run: as §1

S. epidermidis ATCC12228 = conditions: Staphylococcus epidermidis, ATCC12228, S. epidermidis ATCC12228
How it was run: as §1

S. epidermidis ATCC14990 = conditions: Staphylococcus epidermidis, ATCC14990, S. epidermidis ATCC14990
How it was run: as §1

S. epidermidis ATCC35983 = conditions: Staphylococcus epidermidis, ATCC35983, S. epidermidis ATCC35983
How it was run: as §1

For `CN[C@H](CC(C)C)C(=O)N[C@H]1C(=O)N[C@@H](CC(N)=O)C(=O)N[C@H]2C(=O)N[C@H]3C(=O)N[C@H](C(=O)N[C@H](C(=O)O)c4cc(O)cc(O)c4-c4cc3ccc4O)[C@H](O)c3ccc(c(Cl)c3)Oc3cc2cc(c3O[C@@H]2O[C@H](CO)[C@@H](O)[C@H](O)[C@H]2O[C@H]2C[C@](C)(N)[C@H](O)[C@H](C)O2)Oc2ccc(cc2Cl)[C@H]1O` [Vancomycin], the MIC (E. faecalis A7789 Line-R; CAMHB) was 2 µg/mL (≈ 1.38 µM), the MIC (E. faecalis A7789 Line-R; TSB) was 2 µg/mL (≈ 1.38 µM) and the MIC (E. faecalis A7789 Line-R; Table 6, 1st) was 1 µg/mL (≈ 0.69 µM). The MIC (E. faecalis A7789 Line-R; Table 6, 2nd) was 1 µg/mL (≈ 0.69 µM), the MIC (E. faecalis ATCC29212; CAMHB) was 4 µg/mL (≈ 2.76 µM) and the MIC (E. faecalis ATCC29212; Table 6, 1st) was 2 µg/mL (≈ 1.38 µM). For the same compound, the MIC (E. faecalis ATCC29212; Table 6, 2nd) was 2 µg/mL (≈ 1.38 µM), the MIC (E. faecalis ATCC51299; CAMHB) was > 16 µg/mL and the MIC (E. faecalis ATCC51299; TSB) was > 16 µg/mL. For the same compound, the MIC (E. faecalis ATCC51299; Table 6, 1st) was > 16 µg/mL, the MIC (E. faecalis ATCC51299; Table 6, 2nd) was 32 µg/mL (≈ 22.1 µM) and the MIC (E. faecium A-5960 Line-R; CAMHB) was > 16 µg/mL. The MIC (E. faecium A-5960 Line-R; TSB) was > 16 µg/mL, the MIC (E. faecium A-5960 Line-R; Table 6, 1st) was > 16 µg/mL and the MIC (E. faecium A-5960 Line-R; Table 6, 2nd) was > 64 µg/mL. For the same compound, the MIC (E. faecium A2735 Syn-R; CAMHB) was > 16 µg/mL, the MIC (E. faecium A2735 Syn-R; TSB) was > 16 µg/mL and the MIC (E. faecium A2735 Syn-R; Table 6, 1st) was > 16 µg/mL. The MIC (E. faecium A2735 Syn-R; Table 6, 2nd) was > 64 µg/mL, the MIC (E. faecium A4192 Syn-R; CAMHB) was > 16 µg/mL and the MIC (E. faecium A4192 Syn-R; TSB) was > 16 µg/mL. The MIC (E. faecium A4192 Syn-R; Table 6, 1st) was > 16 µg/mL, the MIC (E. faecium A4192 Syn-R; Table 6, 2nd) was > 64 µg/mL and the MIC (E. faecium A5959 Line-R; CAMHB) was > 16 µg/mL. For the same compound, the MIC (E. faecium A5959 Line-R; TSB) was > 16 µg/mL, the MIC (E. faecium A5959 Line-R; Table 6, 1st) was > 16 µg/mL and the MIC (E. faecium A5959 Line-R; Table 6, 2nd) was > 64 µg/mL. For the same compound, the MIC (E. faecium A6343 Line-R; CAMHB) was 2 µg/mL (≈ 1.38 µM), the MIC (E. faecium A6343 Line-R; TSB) was 2 µg/mL (≈ 1.38 µM) and the MIC (E. faecium A6343 Line-R; Table 6, 1st) was 1 µg/mL (≈ 0.69 µM). The MIC (E. faecium A6343 Line-R; Table 6, 2nd) was 1 µg/mL (≈ 0.69 µM), the “reference MIC for strains used for killing curve” value (E. faecium A6345 Line-R; E. faecium A6345 Line-R. as printed, second row of Table 3) was >64 µg/mL and the “reference MIC for strains used for killing curve” value (E. faecium A6345 Line-R; E. faecium A6345 Line-R., first row of Table 3) was >64 µg/mL. For the same compound, the MIC (E. faecium A6345 Line-R; CAMHB) was > 16 µg/mL, the MIC (E. faecium A6345 Line-R; TSB) was > 16 µg/mL and the MIC (E. faecium A6345 Line-R; Table 6, 1st) was > 16 µg/mL. The MIC (E. faecium A6345 Line-R; Table 6, 2nd) was > 64 µg/mL, the MIC (E. faecium A6349 Line-R; Table 6, 1st) was > 16 µg/mL and the MIC (E. faecium A6349 Line-R; Table 6, 2nd) was > 64 µg/mL. It also gave an MIC (E. faecium A6350 Line-R; CAMHB) of 2 µg/mL (≈ 1.38 µM), an MIC (E. faecium A6350 Line-R; TSB) of 2 µg/mL (≈ 1.38 µM) and an MIC (E. faecium A6350 Line-R; Table 6, 1st) of 1 µg/mL (≈ 0.69 µM). For the same compound, the MIC (E. faecium A6350 Line-R; Table 6, 2nd) was 1 µg/mL (≈ 0.69 µM), the MIC (E. faecium ATCC700221; CAMHB) was > 16 µg/mL and the MIC (E. faecium ATCC700221; TSB) was > 16 µg/mL. For the same compound, the MIC (E. faecium ATCC700221; Table 6, 1st) was > 16 µg/mL, the MIC (E. faecium ATCC700221; Table 6, 2nd) was > 64 µg/mL and the MIC (E. faecium UA210; CAMHB) was > 16 µg/mL. For the same compound, the MIC (E. faecium UA210; TSB) was > 16 µg/mL, the MIC (E. faecium UA210; Table 6, 1st) was > 16 µg/mL and the MIC (E. faecium UA210; Table 6, 2nd) was > 64 µg/mL. For the same compound, the MIC (E. faecium UA392; CAMHB) was 1 µg/mL (≈ 0.69 µM), the MIC (E. faecium UA392; TSB) was 2 µg/mL (≈ 1.38 µM) and the MIC (E. faecium UA392; Table 6, 1st) was 2 µg/mL (≈ 1.38 µM). For the same compound, the MIC (E. faecium UA392; Table 6, 2nd) was 2 µg/mL (≈ 1.38 µM), the MIC (E. gallinarum UA604; CAMHB) was 1 µg/mL (≈ 0.69 µM) and the MIC (E. gallinarum UA604; TSB) was 2 µg/mL (≈ 1.38 µM). The MIC (E. gallinarum UA604; Table 6, 1st) was 0.5 µg/mL (≈ 0.345 µM), the MIC (E. gallinarum UA604; Table 6, 2nd) was 0.5 µg/mL (≈ 0.345 µM) and the MIC (S. aureus ATCC12600 MRSA; CAMHB) was 2 µg/mL (≈ 1.38 µM). The MIC (S. aureus ATCC12600 MRSA; TSB) was 2 µg/mL (≈ 1.38 µM), the MIC (S. aureus ATCC12600 MRSA; Table 6, 1st) was 1 µg/mL (≈ 0.69 µM) and the MIC (S. aureus ATCC12600 MRSA; Table 6, 2nd) was 1 µg/mL (≈ 0.69 µM). For the same compound, the MIC (S. aureus ATCC27659 MSSA; CAMHB) was 1 µg/mL (≈ 0.69 µM), the MIC (S. aureus ATCC27659 MSSA; TSB) was > 16 µg/mL and the MIC (S. aureus ATCC27659 MSSA; Table 6, 1st) was 1 µg/mL (≈ 0.69 µM). It also gave an MIC (S. aureus ATCC27659 MSSA; Table 6, 2nd) of 1 µg/mL (≈ 0.69 µM), an MIC (S. aureus ATCC27660 MSSA; CAMHB) of 2 µg/mL (≈ 1.38 µM) and an MIC (S. aureus ATCC27660 MSSA; TSB) of 2 µg/mL (≈ 1.38 µM). For the same compound, the MIC (S. aureus ATCC27660 MSSA; Table 6, 1st) was 1 µg/mL (≈ 0.69 µM), the MIC (S. aureus ATCC27660 MSSA; Table 6, 2nd) was 1 µg/mL (≈ 0.69 µM) and the MIC (S. aureus ATCC35556 MRSA; CAMHB) was 1 µg/mL (≈ 0.69 µM). For the same compound, the MIC (S. aureus ATCC35556 MRSA; TSB) was > 16 µg/mL, the MIC (S. aureus ATCC35556 MRSA; Table 6, 1st) was 1 µg/mL (≈ 0.69 µM) and the MIC (S. aureus ATCC35556 MRSA; Table 6, 2nd) was 1 µg/mL (≈ 0.69 µM). The MIC (S. aureus ATCC43300 MRSA; S. aureus ATCC43300 MRSA/VISA, Table 6, 2nd) was 1 µg/mL (≈ 0.69 µM), the MIC (S. aureus ATCC43300 MRSA; S. aureus ATCC43300 MRSA, TSB) was 2, 2 μg/ml and the MIC (S. aureus ATCC43300 MRSA; Staphylococcus aureus) was 2 µg/mL (≈ 1.38 µM). For the same compound, the MIC (S. aureus ATCC43300 MRSA; Staphylococcus aureus, ATCC 43300 / MRSA / VISA) was 1 µg/mL (≈ 0.69 µM), the MIC (S. epidermidis ATCC12228; CAMHB) was 4 µg/mL (≈ 2.76 µM) and the MIC (S. epidermidis ATCC12228; TSB) was 4 µg/mL (≈ 2.76 µM). It also gave an MIC (S. epidermidis ATCC12228; Table 6, 1st) of 2 µg/mL (≈ 1.38 µM), an MIC (S. epidermidis ATCC12228; Table 6, 2nd) of 2 µg/mL (≈ 1.38 µM) and an MIC (S. epidermidis ATCC14990; CAMHB) of 4 µg/mL (≈ 2.76 µM). It also gave an MIC (S. epidermidis ATCC14990; TSB) of 4 µg/mL (≈ 2.76 µM), an MIC (S. epidermidis ATCC14990; Table 6, 1st) of 2 µg/mL (≈ 1.38 µM) and an MIC (S. epidermidis ATCC14990; Table 6, 2nd) of 2 µg/mL (≈ 1.38 µM). The MIC (S. epidermidis ATCC35983; CAMHB) was 4 µg/mL (≈ 2.76 µM), the MIC (S. epidermidis ATCC35983; TSB) was 4 µg/mL (≈ 2.76 µM) and the MIC (S. epidermidis ATCC35983; Table 6, 1st) was 2 µg/mL (≈ 1.38 µM). It also gave an MIC (S. epidermidis ATCC35983; Table 6, 2nd) of 2 µg/mL (≈ 1.38 µM).
